US20250340569A1, “INHIBITORS OF KIF18A AND USES THEREOF” (Insilico Medicine IP Limited, priority 2023, published 2025)

Columns and labels:
Kif18A = biological target: T1, Kif18A (Homo sapiens, UniProt Q8NI77); assay: KIF18A assay (ADP Glo); conditions: biochemical assay, ADP Glo luminescence
T1 sequence (Q8NI77 1-898): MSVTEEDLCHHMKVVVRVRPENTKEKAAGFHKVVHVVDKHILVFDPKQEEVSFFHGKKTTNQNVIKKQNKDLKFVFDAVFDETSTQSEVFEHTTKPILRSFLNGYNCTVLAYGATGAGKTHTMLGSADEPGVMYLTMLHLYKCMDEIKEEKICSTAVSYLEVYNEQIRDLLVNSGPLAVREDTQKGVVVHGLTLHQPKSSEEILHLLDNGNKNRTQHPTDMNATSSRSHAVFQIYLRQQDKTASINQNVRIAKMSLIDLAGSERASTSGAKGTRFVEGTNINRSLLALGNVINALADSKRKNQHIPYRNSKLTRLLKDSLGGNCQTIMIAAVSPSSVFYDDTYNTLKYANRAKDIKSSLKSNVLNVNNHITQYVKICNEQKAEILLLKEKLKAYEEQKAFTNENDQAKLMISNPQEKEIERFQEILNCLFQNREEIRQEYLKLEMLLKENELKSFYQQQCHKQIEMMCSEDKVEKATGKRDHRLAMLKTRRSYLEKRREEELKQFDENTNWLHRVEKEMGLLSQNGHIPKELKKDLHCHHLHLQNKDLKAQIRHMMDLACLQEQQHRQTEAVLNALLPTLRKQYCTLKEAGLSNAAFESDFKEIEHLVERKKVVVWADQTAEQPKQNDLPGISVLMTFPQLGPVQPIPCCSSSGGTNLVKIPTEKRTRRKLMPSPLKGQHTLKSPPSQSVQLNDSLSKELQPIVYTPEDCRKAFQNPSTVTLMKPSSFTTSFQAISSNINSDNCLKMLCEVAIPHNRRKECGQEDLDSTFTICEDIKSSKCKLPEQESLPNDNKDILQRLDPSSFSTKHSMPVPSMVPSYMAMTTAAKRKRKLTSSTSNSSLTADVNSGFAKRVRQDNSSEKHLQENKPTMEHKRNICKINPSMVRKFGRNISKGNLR
Protocol: The KIF18A assay was performed as follows:
1.1. Prepared 1× Kinase Buffer
• a) Added 40 μL test compound to 384-well dilution plate • b) Diluted compound 1:3 in succession in DMSO for each column for 10 pts • c) Transferred 0.1 μL diluted compound solution to 384 assay plate using Echo, each column containing 2 replicates • d) Added 5 μL enzyme working solution to 384-well assay plate, centrifuge 1000 RPM for 1 min e) Incubated at 25° C. for 15 min • f) Added 5 μL ATP working solution to initiate reaction • g) Incubated at 25° C. for 60 min • h) Added 10 μL ADP Glo reagent, centrifuge 1000 RPM for 1 min • i) Incubated at 25° C. for 60 min • j) Added 20 μL kinase detection reagent, centrifuge 1000 RPM for 1 min • k) Incubated at 25° C. for 60 min • l) Read Luminescence Signal on Envision 2104 plate reader.
1.3. Data Analysis—Calculated IC50 and Plot Dose-Response Curve of Compounds:
Calculated IC50 by fitting % Inhibition values and log of compound concentrations to nonlinear regression (dose response−variable slope) with GraphPad 6.0.
[formula] • X: log of inhibitor concentration; Y: % Inhibition

OVCAR-3 = assay: OVCAR3 CTG assay; type: cell-based; conditions: Homo sapiens, OVCAR-3, 144 h; CellTiter-Glo, 6 days incubation
How it was run: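 OVCAR-3 cells plated overnight, then exposed to test compounds for 6 days at 37 °C, 5% CO2; 2 mM DMSO working stock diluted 200-fold overall, staurosporine as control. Viability read by CellTiter-Glo luminescence after 10 min lysis and 10 min room-temperature stabilisation.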

| IC50 (Kif18A) | IC50 (OVCAR-3) | Structure (SMILES) |
| --- | --- | --- |
| < 10 nM | < 10 nM | CC1CCCC2(C(F)(F)F)CCN(CC2)c2cc(NS(=O)(=O)CCO)ncc2C(=O)Nc2cccc(n2)NC1 (single isomer, unassigned) [EX100-B] |
| 100 to 1000 nM | 100 to 1000 nM | CN1CCCOCC2(C)CCN(CC2)c2cc(NS(=O)(=O)CCO)ccc2C(=O)Nc2cccc(n2)C1=O [EX22] |
| < 10 nM | 10 to 100 nM | Cc1cc2nc(n1)NCCCCC1(C)CCN(CC1)c1cc(NS(=O)(=O)CCO)ccc1C(=O)N2 [EX37] |
| 10 to 100 nM | 10 to 100 nM | Cc1cc2nc(n1)N(C)CCOCC1(C)CCN(CC1)c1cc(NS(=O)(=O)CCO)ccc1C(=O)N2 [EX04] |
| 100 to 1000 nM | 100 to 1000 nM | CN1CCOCC2(C)CCN(CC2)c2cc(NS(=O)(=O)CCO)ccc2C(=O)Nc2cccc(n2)C1=O [EX21] |
| 10 to 100 nM | 100 to 1000 nM | Cc1cc2nc(n1)NCCCCOC1(C)CCN(CC1)c1cc(NS(=O)(=O)CCO)ccc1C(=O)N2 [EX18] |
| < 10 nM | 10 to 100 nM | C[C@@H]1CCCC2(C(F)F)CCN(CC2)c2cc(NS(=O)(=O)CCO)ccc2C(=O)Nc2cccc(n2)NC1 [EX102-A] |
